# According to the supplement of paper PMC11952222, “Development and comparison of single FLT3-inhibitors to dual FLT3/TAF1-inhibitors as an anti-leukemic approach” (PLOS One, 2025):
# ± gives the standard deviation of the averaged measurements.
# Test system: IGROV1
# Assay: cell viability (CellTiter-Glo luminescence) relative to DMSO (fraction of DMSO control); higher = higher signal (more live cells for CellTiter-Glo)
# Details: 0.01 µM; 72 h
# Description: (§1)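 MOLM13, DU4475, HDQP1 and IGROV1 cells were treated with compounds in 384-well format for 72 h (KASUMI-1 in 96-well plates, RPMI + 10% FCS, 72 h). Viability was read with CellTiter-Glo and cell death with CellTox Green, both normalised to DMSO vehicle. Doses ranged 0.001-30 µM.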
row,SMILES,cell viability
1,Cc1cc(-c2cc(NC(=O)c3ccc(C(C)(C)C)cc3)[nH]n2)ccn1 [3i-1246],0.998 ± 0.05
2,CC(C)(C)c1ccc(C(=O)Nc2cc(-c3ccccc3)n[nH]2)cc1 [3i-1247],0.974 ± 0.071
3,Cn1cc(-c2cc(NC(=O)c3ccc(C(C)(C)C)cc3)n[nH]2)ccc1=O [3i-1248],0.989 ± 0.047
4,C=CCCn1cc(-c2cc(C(=O)N3CCOCC3)cc3c2ncn3C)c2cc[nH]c2c1=O [GNE-371],1.07 ± 0.11
5,CC(C)(C)c1cc(NC(=O)Nc2ccc(-c3cn4c(n3)sc3cc(OCCN5CCOCC5)ccc34)cc2)no1 [quizartinib],1.08 ± 0.081

# Same assay, conditions: 0.1 µM; 72 h
row,SMILES,cell viability
1,Cc1cc(-c2cc(NC(=O)c3ccc(C(C)(C)C)cc3)[nH]n2)ccn1 [3i-1246],0.958 ± 0.072
2,CC(C)(C)c1ccc(C(=O)Nc2cc(-c3ccccc3)n[nH]2)cc1 [3i-1247],0.955 ± 0.11
3,Cn1cc(-c2cc(NC(=O)c3ccc(C(C)(C)C)cc3)n[nH]2)ccc1=O [3i-1248],0.982 ± 0.075
4,C=CCCn1cc(-c2cc(C(=O)N3CCOCC3)cc3c2ncn3C)c2cc[nH]c2c1=O [GNE-371],1.02 ± 0.07
5,CC(C)(C)c1cc(NC(=O)Nc2ccc(-c3cn4c(n3)sc3cc(OCCN5CCOCC5)ccc34)cc2)no1 [quizartinib],1.07 ± 0.1

# Same assay, conditions: 0.3 µM; 72 h
row,SMILES,cell viability
1,Cc1cc(-c2cc(NC(=O)c3ccc(C(C)(C)C)cc3)[nH]n2)ccn1 [3i-1246],0.866 ± 0.042
2,CC(C)(C)c1ccc(C(=O)Nc2cc(-c3ccccc3)n[nH]2)cc1 [3i-1247],0.803 ± 0.035
3,Cn1cc(-c2cc(NC(=O)c3ccc(C(C)(C)C)cc3)n[nH]2)ccc1=O [3i-1248],0.953 ± 0.12
4,C=CCCn1cc(-c2cc(C(=O)N3CCOCC3)cc3c2ncn3C)c2cc[nH]c2c1=O [GNE-371],0.935 ± 0.064
5,CC(C)(C)c1cc(NC(=O)Nc2ccc(-c3cn4c(n3)sc3cc(OCCN5CCOCC5)ccc34)cc2)no1 [quizartinib],0.721 ± 0.12

# Same assay, conditions: 1 µM; 72 h
row,SMILES,cell viability
1,Cc1cc(-c2cc(NC(=O)c3ccc(C(C)(C)C)cc3)[nH]n2)ccn1 [3i-1246],0.864 ± 0.095
2,CC(C)(C)c1ccc(C(=O)Nc2cc(-c3ccccc3)n[nH]2)cc1 [3i-1247],0.739 ± 0.034
3,Cn1cc(-c2cc(NC(=O)c3ccc(C(C)(C)C)cc3)n[nH]2)ccc1=O [3i-1248],0.861 ± 0.067
4,C=CCCn1cc(-c2cc(C(=O)N3CCOCC3)cc3c2ncn3C)c2cc[nH]c2c1=O [GNE-371],0.975 ± 0.052
5,CC(C)(C)c1cc(NC(=O)Nc2ccc(-c3cn4c(n3)sc3cc(OCCN5CCOCC5)ccc34)cc2)no1 [quizartinib],0.633 ± 0.12

# Same assay, conditions: 3 µM; 72 h
row,SMILES,cell viability
1,Cc1cc(-c2cc(NC(=O)c3ccc(C(C)(C)C)cc3)[nH]n2)ccn1 [3i-1246],0.811 ± 0.053
2,CC(C)(C)c1ccc(C(=O)Nc2cc(-c3ccccc3)n[nH]2)cc1 [3i-1247],0.467 ± 0.062
3,Cn1cc(-c2cc(NC(=O)c3ccc(C(C)(C)C)cc3)n[nH]2)ccc1=O [3i-1248],0.783 ± 0.047
4,C=CCCn1cc(-c2cc(C(=O)N3CCOCC3)cc3c2ncn3C)c2cc[nH]c2c1=O [GNE-371],0.95 ± 0.11
5,CC(C)(C)c1cc(NC(=O)Nc2ccc(-c3cn4c(n3)sc3cc(OCCN5CCOCC5)ccc34)cc2)no1 [quizartinib],0.468 ± 0.12

# Same assay, conditions: 10 µM; 72 h
row,SMILES,cell viability
1,Cc1cc(-c2cc(NC(=O)c3ccc(C(C)(C)C)cc3)[nH]n2)ccn1 [3i-1246],0.587 ± 0.085
2,CC(C)(C)c1ccc(C(=O)Nc2cc(-c3ccccc3)n[nH]2)cc1 [3i-1247],0.365 ± 0.019
3,Cn1cc(-c2cc(NC(=O)c3ccc(C(C)(C)C)cc3)n[nH]2)ccc1=O [3i-1248],0.568 ± 0.075
4,C=CCCn1cc(-c2cc(C(=O)N3CCOCC3)cc3c2ncn3C)c2cc[nH]c2c1=O [GNE-371],0.931 ± 0.043
5,CC(C)(C)c1cc(NC(=O)Nc2ccc(-c3cn4c(n3)sc3cc(OCCN5CCOCC5)ccc34)cc2)no1 [quizartinib],0.614 ± 0.093

# Same assay, conditions: 30 µM; 72 h
row,SMILES,cell viability
1,Cc1cc(-c2cc(NC(=O)c3ccc(C(C)(C)C)cc3)[nH]n2)ccn1 [3i-1246],0.19 ± 0.051
2,CC(C)(C)c1ccc(C(=O)Nc2cc(-c3ccccc3)n[nH]2)cc1 [3i-1247],0.243 ± 0.049
3,Cn1cc(-c2cc(NC(=O)c3ccc(C(C)(C)C)cc3)n[nH]2)ccc1=O [3i-1248],0.0746 ± 0.044
4,C=CCCn1cc(-c2cc(C(=O)N3CCOCC3)cc3c2ncn3C)c2cc[nH]c2c1=O [GNE-371],0.958 ± 0.054
5,CC(C)(C)c1cc(NC(=O)Nc2ccc(-c3cn4c(n3)sc3cc(OCCN5CCOCC5)ccc34)cc2)no1 [quizartinib],0.384 ± 0.069

# Test system: HDQP1
# Assay: as above
# Details: 0.01 µM; 72 h
# Description: as §1
row,SMILES,cell viability
1,Cc1cc(-c2cc(NC(=O)c3ccc(C(C)(C)C)cc3)[nH]n2)ccn1 [3i-1246],0.98 ± 0.034
2,CC(C)(C)c1ccc(C(=O)Nc2cc(-c3ccccc3)n[nH]2)cc1 [3i-1247],0.999 ± 0.019
3,Cn1cc(-c2cc(NC(=O)c3ccc(C(C)(C)C)cc3)n[nH]2)ccc1=O [3i-1248],0.995 ± 0.032
4,C=CCCn1cc(-c2cc(C(=O)N3CCOCC3)cc3c2ncn3C)c2cc[nH]c2c1=O [GNE-371],1.04 ± 0.04
5,CC(C)(C)c1cc(NC(=O)Nc2ccc(-c3cn4c(n3)sc3cc(OCCN5CCOCC5)ccc34)cc2)no1 [quizartinib],0.984 ± 0.052

# Same assay, conditions: 0.1 µM; 72 h
row,SMILES,cell viability
1,Cc1cc(-c2cc(NC(=O)c3ccc(C(C)(C)C)cc3)[nH]n2)ccn1 [3i-1246],0.99 ± 0.031
2,CC(C)(C)c1ccc(C(=O)Nc2cc(-c3ccccc3)n[nH]2)cc1 [3i-1247],1 ± 0.016
